Assay results as given in ChEMBL document CHEMBL3621155, “The status of the lysophosphatidic acid receptor type 1 (LPA1R)” (Medchemcomm, 2015).

Tests used:
[1] = biological target: T1, Lysophosphatidic acid receptor 4 (Homo sapiens, UniProt Q99677); assay: Antagonist activity at human LPA4 receptor expressed in rat B103 cells assessed as inhibition of LPA-induced calcium mobilization preincubated for 30 mins followed by LPA induction by FLIPR Calcium 4 dye-based fluorometric analysis; type: functional, cell-based
T1 sequence (Q99677 whole entry): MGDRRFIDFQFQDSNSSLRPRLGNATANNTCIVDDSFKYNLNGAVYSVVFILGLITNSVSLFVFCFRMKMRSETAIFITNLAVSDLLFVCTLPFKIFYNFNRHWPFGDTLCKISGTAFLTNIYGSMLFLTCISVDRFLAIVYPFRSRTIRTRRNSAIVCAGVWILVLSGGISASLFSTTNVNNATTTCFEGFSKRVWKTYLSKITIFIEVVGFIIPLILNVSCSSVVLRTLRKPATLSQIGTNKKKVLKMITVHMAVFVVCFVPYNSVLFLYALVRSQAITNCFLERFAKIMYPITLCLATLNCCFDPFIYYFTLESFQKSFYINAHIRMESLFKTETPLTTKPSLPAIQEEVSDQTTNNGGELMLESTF

[2] = biological target: T2, Lysophosphatidic acid receptor 1 (Homo sapiens, UniProt Q92633); assay: Antagonist activity at human LPA1 receptor expressed in CHO cells assessed as inhibition of LPA-induced calcium mobilization preincubated for 30 mins followed by LPA induction by FLIPR Calcium 4 dye-based fluorometric analysis; type: functional, cell-based
T2 sequence (Q92633 whole entry): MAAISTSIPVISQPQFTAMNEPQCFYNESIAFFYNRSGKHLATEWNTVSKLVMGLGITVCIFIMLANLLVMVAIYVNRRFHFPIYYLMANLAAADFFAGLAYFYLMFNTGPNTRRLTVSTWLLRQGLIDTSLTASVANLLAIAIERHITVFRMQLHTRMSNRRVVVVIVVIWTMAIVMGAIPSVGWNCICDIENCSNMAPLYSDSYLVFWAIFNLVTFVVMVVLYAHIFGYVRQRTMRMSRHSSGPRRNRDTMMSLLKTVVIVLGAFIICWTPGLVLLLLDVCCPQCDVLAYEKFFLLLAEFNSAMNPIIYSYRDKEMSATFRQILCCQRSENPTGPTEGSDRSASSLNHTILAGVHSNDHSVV

[3] = biological target: Lysophosphatidic acid receptor 5 (Homo sapiens, UniProt Q9H1C0); assay: Antagonist activity at human LPA5 receptor expressed in rat B103 cells assessed as inhibition of LPA-induced calcium mobilization preincubated for 30 mins followed by LPA induction by FLIPR Calcium 4 dye-based fluorometric analysis; type: functional, cell-based
Sequence of Lysophosphatidic acid receptor 5 (Q9H1C0 whole entry): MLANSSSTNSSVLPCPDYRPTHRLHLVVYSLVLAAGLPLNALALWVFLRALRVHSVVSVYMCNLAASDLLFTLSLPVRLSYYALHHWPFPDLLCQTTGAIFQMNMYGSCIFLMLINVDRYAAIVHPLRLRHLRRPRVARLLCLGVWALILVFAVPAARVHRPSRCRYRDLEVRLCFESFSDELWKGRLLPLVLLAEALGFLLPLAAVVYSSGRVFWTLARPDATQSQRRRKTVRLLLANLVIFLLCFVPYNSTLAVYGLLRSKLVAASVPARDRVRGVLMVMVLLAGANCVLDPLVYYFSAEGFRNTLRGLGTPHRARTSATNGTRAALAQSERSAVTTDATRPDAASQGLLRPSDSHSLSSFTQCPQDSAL

[4] = biological target: T3, Lysophosphatidic acid receptor 2 (Homo sapiens, UniProt Q9HBW0); assay: Antagonist activity at human LPA2 receptor expressed in rat B103 cells assessed as inhibition of LPA-induced calcium mobilization preincubated for 30 mins followed by LPA induction by FLIPR Calcium 4 dye-based fluorometric analysis; type: functional, cell-based
T3 sequence (Q9HBW0 whole entry): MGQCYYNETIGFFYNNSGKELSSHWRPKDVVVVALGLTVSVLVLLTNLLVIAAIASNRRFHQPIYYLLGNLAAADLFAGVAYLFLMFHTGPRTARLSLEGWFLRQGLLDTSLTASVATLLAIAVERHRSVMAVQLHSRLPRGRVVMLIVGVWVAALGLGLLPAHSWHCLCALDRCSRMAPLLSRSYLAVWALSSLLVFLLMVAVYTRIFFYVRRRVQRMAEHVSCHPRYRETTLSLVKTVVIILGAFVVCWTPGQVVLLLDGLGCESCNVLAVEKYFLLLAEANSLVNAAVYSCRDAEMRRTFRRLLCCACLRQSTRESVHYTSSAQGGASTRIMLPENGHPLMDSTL

[5] = biological target: T4, Lysophosphatidic acid receptor 3 (Homo sapiens, UniProt Q9UBY5); assay: Antagonist activity at human LPA3 receptor expressed in CHO cells assessed as inhibition of LPA-induced calcium mobilization preincubated for 30 mins followed by LPA induction by FLIPR Calcium 4 dye-based fluorometric analysis; type: functional, cell-based
T4 sequence (Q9UBY5 whole entry): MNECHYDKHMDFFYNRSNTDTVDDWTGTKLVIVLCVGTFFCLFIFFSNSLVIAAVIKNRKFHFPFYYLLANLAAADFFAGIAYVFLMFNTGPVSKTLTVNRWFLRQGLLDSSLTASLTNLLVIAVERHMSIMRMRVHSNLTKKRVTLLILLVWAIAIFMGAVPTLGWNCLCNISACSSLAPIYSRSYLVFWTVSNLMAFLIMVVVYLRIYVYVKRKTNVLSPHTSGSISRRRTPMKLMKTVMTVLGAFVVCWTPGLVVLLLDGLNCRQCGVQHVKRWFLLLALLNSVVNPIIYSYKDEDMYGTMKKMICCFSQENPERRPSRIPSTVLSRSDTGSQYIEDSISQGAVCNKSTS

[6] = Displacement of [32P]diazirine-LPA from LPA receptor in mouse N1E-115 cells preincubated for 1 hr in dark followed by UV irradiation for 5 mins by scintillation counting analysis; type: cell-based
[7] = biological target: T4, Lysophosphatidic acid receptor 3; assay: Agonist activity at human LPA3 receptor transfected in RH7777 cells assessed as mobilization of Ca2+ by fluorometric analysis; type: functional, cell-based
[8] = biological target: T2, Lysophosphatidic acid receptor 1; assay: Agonist activity at human LPA1 receptor transfected in RH7777 cells assessed as mobilization of Ca2+ by fluorometric analysis; type: functional, cell-based
[9] = biological target: T2, Lysophosphatidic acid receptor 1; assay: Agonist activity at human LPA1 receptor transfected in HEK293T cells after 30 mins by GTP[gamma-35S] binding assay; type: cell-based, HEK-293T
[10] = biological target: Lysophosphatidic acid receptor 1/lysophosphatidic acid receptor 3 (Rattus norvegicus, UniProt Q8K5E0+P61794); assay: Antagonist activity at LPA1/LPA3 receptor (unknown origin); type: protein assay, Homo sapiens
[11] = biological target: T4, Lysophosphatidic acid receptor 3; assay: Agonist activity at human LPA3 receptor transfected in HEK293T cells after 30 mins by GTP[gamma-35S] binding assay; type: cell-based, HEK-293T
[12] = biological target: T2, Lysophosphatidic acid receptor 1; assay: Antagonist activity at human LPA1 receptor expressed in CHO cells assessed as inhibition of LPA-induced calcium mobilization preincubated with protein followed by LPA induction measured for 2 mins by Fluo-4 dye-based FLIPR assay; type: functional, cell-based
[13] = biological target: T4, Lysophosphatidic acid receptor 3; assay: Antagonist activity at human LPA3 receptor expressed in RH7777 cells assessed as inhibition of LPA-induced calcium mobilization by Fura-2 AM probe-based fluorometric analysis; type: functional, cell-based
[14] = biological target: T2, Lysophosphatidic acid receptor 1; assay: Antagonist activity at human LPA1 receptor expressed in RH7777 cells assessed as inhibition of LPA-induced calcium mobilization by Fura-2 AM probe-based fluorometric analysis; type: functional, cell-based
[15] = biological target: T1, Lysophosphatidic acid receptor 4; assay: Antagonist activity at human LPA4 receptor expressed in CHO cells assessed as inhibition of LPA-induced calcium mobilization by Fura-2 AM probe-based fluorometric analysis; type: functional, cell-based
[16] = biological target: T3, Lysophosphatidic acid receptor 2; assay: Antagonist activity at human LPA2 receptor expressed in RH7777 cells assessed as inhibition of LPA-induced calcium mobilization by Fura-2 AM probe-based fluorometric analysis; type: functional, cell-based
[17] = biological target: Lysophosphatidic acid receptor 1 (Mus musculus, UniProt P61793); assay: Antagonist activity at mouse LPA1 receptor transfected in HEK293T cells; type: cell-based, HEK-293T
Sequence of Lysophosphatidic acid receptor 1 (Mus musculus, UniProt P61793) (P61793 whole entry): as the sequence (Q92633 whole entry) above, with I4A, I8S, P22Q, H40Y, I61V, E193D, N194H, I269V, S331N, T335N counted along it

[18] = biological target: T4, Lysophosphatidic acid receptor 3; assay: Antagonist activity at human LPA3 receptor transfected in HEK293T cells; type: cell-based, HEK-293T
[19] = biological target: T3, Lysophosphatidic acid receptor 2; assay: Agonist activity at human LPA2 receptor transfected in HEK293T cells after 30 mins by GTP[gamma-35S] binding assay; type: cell-based, HEK-293T
[20] = biological target: T3, Lysophosphatidic acid receptor 2; assay: Antagonist activity at human LPA2 receptor expressed in CHO cells assessed as inhibition of LPA-induced calcium mobilization preincubated for 30 mins followed by LPA induction by FLIPR Calcium 4 dye-based fluorometric analysis; type: functional, cell-based

Cc1noc(-c2ccc(-c3ccc(CC(=O)O)cc3)cc2)c1NC(=O)O[C@H](C)c1ccccc1
IC50 [1]: > 8000 nM | IC50 [2]: 25 nM | IC50 [3]: > 8000 nM | IC50 [4]: > 8000 nM | IC50 [5]: > 8000 nM

CCCCCCCC/C=C\CCCCCCCC(=O)OC[C@@H](O)COP(=O)(O)O [LYSOPHOSPHATIDIC ACID]
IC50 [6]: 10 nM

CCCCCCCC/C=C\CCCCCCCCOC[C@@H](COP(O)(O)=S)OC
EC50 [7]: 80 nM | EC50 [8]: 571 nM

CCCCCCCC/C=C\CCCCCCCC(=O)NCCSP(=O)(O)O
EC50 [9]: 318 nM

COc1ccc(C(=O)NC2(C(=O)O)Cc3ccccc3C2)cc1OCCc1cccc(C)c1 [FIPAXALPARANT]
IC50 [10]: < 100 nM

CCCCCCCC/C=C\CCCCCCCC(=O)OC[C@@H](COP(O)(O)=S)OC
EC50 [11]: 276 nM

CCCCCCCC/C=C\CCCCCCCCOC[C@H](COP(O)(O)=S)OC
EC50 [7]: 62 nM | EC50 [8]: 790 nM

COc1ccc([C@@H](O)C(=O)N(CCCc2ccccc2)Cc2nc(C(=O)NS(C)(=O)=O)c(C)s2)c(F)c1
IC50 [12]: 6.6 nM

Cc1nsc(-c2ccc(-c3ccc(CC(=O)O)cc3)cc2)c1NC(=O)O[C@H](C)c1ccccc1Cl
IC50 [2]: < 50 nM | IC50 [5]: > 500 nM

CCCCCC/C=C\CCCCCCCC(=O)OC[C@@H](O)CC(Br)P(=O)(O)O (some centres not stated)
IC50 [13]: 1160 nM | IC50 [14]: 1500 nM | IC50 [15]: 266 nM | IC50 [16]: 1420 nM

CCCCCCCC/C=C\CCCCCCCC(=O)N[C@H](COP(=O)(O)O)Cc1ccc(OCc2ccccc2)cc1
IC50 [17]: 5210 nM | IC50 [18]: 6450 nM

CCCCCCCC/C=C\CCCCCCCC(=O)NCCOP(O)(O)=S
EC50 [9]: 40 nM | EC50 [19]: 108 nM

Cc1noc(-c2ccc(-c3ccc(CC(=O)O)cc3)cc2)c1NC(=O)O[C@H](C)c1ccccc1Cl
IC50 [2]: 17 nM | IC50 [20]: 1700 nM | IC50 [5]: 1600 nM
